Measured values: patent US20080045535A1, “Prokineticin 2 receptor antagonists” (priority 2005, published 2008)
“And” between values parts separate entries of the source, which are not always exact repeats. Identical values can stand only once.

Target: T1, HEK 293 GPR73 (prokineticin 1 receptor) expressing cells (Homo sapiens, UniProt Q8TCW9)
T1 construct: expressed in transfected cells; host or cells: HEK 293
Experiment: PK1 functional assay: screening for PK1 antagonists on the FLIPR (calcium fluorescence)
Format: cell-based
Details: HEK 293 GPR73 cells; for inhibition at 10 µM: HEK293, compound at 10 μM, read-out: Ca^2+ Mobilization % Inh @10 μM; for inhibition at 10 µM / Ca^2+ Mobilization % Inh @10 μM: multiple values = repeat tests; for IC50: PK1 ligand at EC50, multiple values = repeat tests, read-out: Ca^2+ Mobilization IC50; for Ca^2+ Mobilization % Inh @10 μM: compound at 10 μM
Experimental: At a time of 24 h prior to running the assay, in cell culture media (DMEM containing high Glucose and L-glutamine, 10% FBS, 1% Pen/Streptomycin, 1% Sodium Pyruvate, 20 mM HEPES, Zeocin 200 mg/L), 100 μL of 1.3*10^6/ml HEK 293 GPR73 (prokineticin 1 receptor) expressing cells were plated in a 96 well poly-d-lysine coated plate (Costar), and incubated at 37 C and 5% CO2. On the day in which the assay was run, the media was removed and 200 μL of 5× Calcium Plus Dye (Molecular Devices) which was previously resuspended with 200 mL of assay buffer [HBSS w/Ca^2+ and Mg^2+ w/o phenol red, 20 mM HEPES, 0.1% BSA, 10 mL probenecid (710 mg probenecid in 5 mL of 1N NaOH, to which was then added 5 mL HBSS containing 20 mM HEPES)] was added to each well of the 96-well plate. The plate was incubated at 37 C and 5% CO2 for 30 min in dark. The plate was removed and allowed to reach RT for 15 min in the dark. The assay was then run on the FLIPR. […] Baseline is described as the amount of relative fluorescence read when buffer alone is added to cells. Baseline was subtracted from all wells. Percent of control was calculated as follows:
(Baseline subtracted well value is divided by baseline subtracted max value)*100.
Percent inhibition is 100 minus the percent of control value.
IC50 values were calculated using GraphPad Prism.
Table 2 includes data generated from the PK1 functional assay described in Example 2.

T1 sequence (Q8TCW9 whole entry): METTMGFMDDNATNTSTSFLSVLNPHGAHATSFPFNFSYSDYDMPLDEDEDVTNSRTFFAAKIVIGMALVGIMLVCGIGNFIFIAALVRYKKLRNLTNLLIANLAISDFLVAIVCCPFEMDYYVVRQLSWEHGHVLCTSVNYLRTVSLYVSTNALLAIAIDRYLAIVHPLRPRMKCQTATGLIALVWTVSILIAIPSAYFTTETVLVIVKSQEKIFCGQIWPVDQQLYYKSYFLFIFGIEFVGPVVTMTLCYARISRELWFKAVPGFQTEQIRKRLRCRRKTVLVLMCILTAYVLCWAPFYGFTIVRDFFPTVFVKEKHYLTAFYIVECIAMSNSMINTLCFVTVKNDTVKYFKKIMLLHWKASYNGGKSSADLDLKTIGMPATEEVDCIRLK

SMILES: COc1ccc(Cn2c(N[C@@H]3CCCC[C@@H]3NC(=N)N)nc(=O)n(Cc3ccc(Cl)c(Cl)c3)c2=O)cc1 (racemic) [Cpd 42]
- inhibition at 10 µM: 92%
- IC50: 281 nM

SMILES: NC(N)=NCCNc1nc(=O)n(Cc2ccccc2)c(=O)n1Cc1ccc(F)cc1 [Cpd 1]
- inhibition at 10 µM: 30%
- IC50: > 10000 nM

SMILES: COc1ccc(Cn2c(NCCNC(=N)N)nc(=O)n(Cc3ccccc3)c2=O)cc1 [Cpd 2]
- inhibition at 10 µM: 92%
- IC50: 125 nM and 363 nM and 336 nM and 927 nM
- Ca^2+ Mobilization % Inh @10 μM (10 µM): 85% and 74% and 87%

SMILES: COC(=O)c1ccc(Cn2c(NCCNC(=N)N)nc(=O)n(Cc3ccccc3)c2=O)cc1 [Cpd 3]
- IC50: 4960 nM
- Ca^2+ Mobilization % Inh @10 μM: 52%

SMILES: COc1ccc(Cn2c(NCCNC(=N)N)nc(=O)n(CCc3ccccc3)c2=O)cc1 [Cpd 4]
- inhibition at 10 µM: 71%
- IC50: 2500 nM

SMILES: CCCCn1c(=O)nc(NCCNC(=N)N)n(Cc2ccc(OC)cc2)c1=O [Cpd 5]
- inhibition at 10 µM: 67%
- IC50: 2180 nM

SMILES: COc1ccc(Cn2c(NCCNC(=N)N)nc(=O)n(Cc3ccco3)c2=O)cc1 [Cpd 6]
- inhibition at 10 µM: 59%
- IC50: 2590 nM

SMILES: N=C(N)NCCNc1nc(=O)n(Cc2ccccc2)c(=O)n1Cc1cccc(C(F)(F)F)c1 [Cpd 7]
- inhibition at 10 µM: 52%
- IC50: > 10000 nM

SMILES: CC(C)(C)c1ccc(Cn2c(NCCNC(=N)N)nc(=O)n(Cc3ccccc3)c2=O)cc1 [Cpd 8]
- inhibition at 10 µM: 64%
- IC50: 3850 nM

SMILES: N=C(N)NCCNc1nc(=O)n(Cc2ccccc2)c(=O)n1Cc1ccc([N+](=O)[O-])cc1 [Cpd 9]
- IC50: > 10000 nM
- Ca^2+ Mobilization % Inh @10 μM: 35%

SMILES: COc1ccc(Cn2c(NCCONC(=N)N)nc(=O)n(Cc3ccccc3)c2=O)cc1 [Cpd 10]
- IC50: > 10000 nM
- Ca^2+ Mobilization % Inh @10 μM: 33%

SMILES: N=C(N)NCCNc1nc(=O)n(Cc2ccccc2)c(=O)n1Cc1ccncc1 [Cpd 11]
- inhibition at 10 µM: 32%
- IC50: > 10000 nM

SMILES: CCOc1ccc(Cn2c(NCCNC(=N)N)nc(=O)n(Cc3ccccc3)c2=O)cc1 [Cpd 12]
- inhibition at 10 µM: 97%
- IC50: 34 nM and 82 nM and 247 nM
- Ca^2+ Mobilization % Inh @10 μM (10 µM): 96% and 94% and 90%

SMILES: N=C(N)NCCNc1nc(=O)n(Cc2ccccc2)c(=O)n1Cc1ccc(OC(F)F)cc1 [Cpd 13]
- inhibition at 10 µM: 92%
- IC50: 104 nM and 256 nM
- Ca^2+ Mobilization % Inh @10 μM (10 µM): 91%

SMILES: N=C(N)NCCNc1nc(=O)n(Cc2ccccc2)c(=O)n1Cc1ccc(C(F)(F)F)cc1 [Cpd 15]
- inhibition at 10 µM: 55%
- IC50: 6110 nM

SMILES: COc1ccc(Cn2c(NCCNC(=N)N)nc(=O)n(Cc3ccccc3F)c2=O)cc1 [Cpd 16]
- inhibition at 10 µM: 77%
- IC50: 836 nM

SMILES: COc1ccc(Cn2c(NCCNC(=N)N)nc(=O)n(Cc3ccc(F)cc3)c2=O)cc1 [Cpd 17, N-{2-[5-(4-Fluoro-benzyl)-1-(4-methoxy-benzyl)-4,6-dioxo-1,4,5,6-tetrahydro-[1,3,5]triazin-2-ylamino]-ethyl}-guanidine]
- inhibition at 10 µM: 100%
- IC50: 14 nM and 33 nM and 87 nM
- Ca^2+ Mobilization % Inh @10 μM (10 µM): 99% and 97%

SMILES: COc1ccc(Cn2c(NCCNC(=N)N)nc(=O)n(Cc3ccc(Cl)c(Cl)c3)c2=O)cc1 [Cpd 18]
- inhibition at 10 µM: 98%
- IC50: 7 nM and 28 nM and 41 nM and 22 nM and 54 nM
- Ca^2+ Mobilization % Inh @10 μM (10 µM): 100% and 101% and 99%

SMILES: N=C(N)NCCNc1nc(=O)n(Cc2ccccc2)c(=O)n1Cc1ccc(OC(F)(F)F)cc1 [Cpd 19]
- inhibition at 10 µM: 81%
- IC50: 862 nM

SMILES: COc1ccc(Cn2c(NCCNC(=N)N)nc(=O)n(Cc3cccc(OC)c3)c2=O)cc1 [Cpd 20]
- inhibition at 10 µM: 61%
- IC50: 3690 nM

SMILES: COc1ccc(Cn2c(NCCNC(=N)N)nc(=O)n(Cc3ccccc3OC)c2=O)cc1 [Cpd 21]
- inhibition at 10 µM: 43%
- IC50: > 10000 nM

SMILES: N=C(N)NCCNc1nc(=O)n(Cc2ccccc2)c(=O)n1Cc1ccc(C(N)=O)cc1 [Cpd 22]
- inhibition at 10 µM: 80%
- IC50: 947 nM

SMILES: CC(=O)Nc1ccc(Cn2c(NCCNC(=N)N)nc(=O)n(Cc3ccccc3)c2=O)cc1 [Cpd 23]
- inhibition at 10 µM: 74%
- IC50: 1250 nM

SMILES: CCOc1ccc(Cn2c(NCCNC(=N)N)nc(=O)n(Cc3ccc(F)cc3)c2=O)cc1 [Cpd 24]
- inhibition at 10 µM: 99%
- IC50: 41 nM

SMILES: COc1ccc(Cn2c(NCCNC(=N)NC#N)nc(=O)n(Cc3ccc(Cl)c(Cl)c3)c2=O)cc1 [Cpd 28, N-{2-[5-(3,4-Dichloro-benzyl)-1-(4-methoxy-benzyl)-4,6-dioxo-1,4,5,6-tetrahydro-[1,3,5]triazin-2-ylamino]-ethyl}-N′-cyano-guanidine]
- inhibition at 10 µM: 101%
- IC50: 710 nM

SMILES: CCOc1ccc(Cn2c(NCCNC(=N)N)nc(=O)n(Cc3ccc(Cl)c(Cl)c3)c2=O)cc1 [Cpd 29]
- inhibition at 10 µM: 101%
- IC50: 42 nM and 47 nM
- Ca^2+ Mobilization % Inh @10 μM (10 µM): 102%

SMILES: COc1ccc(Cn2c(NCCNC(=N)N)nc(=O)n(Cc3ccc(Cl)cc3)c2=O)cc1 [Cpd 30]
- inhibition at 10 µM: 101%
- IC50: 9 nM and 19 nM
- Ca^2+ Mobilization % Inh @10 μM (10 µM): 103%

SMILES: COc1ccc(Cn2c(NCCNC(=N)N)nc(=O)n(Cc3ccc(OC)cc3)c2=O)cc1 [Cpd 31]
- inhibition at 10 µM: 101%
- IC50: 9 nM and 21 nM
- Ca^2+ Mobilization % Inh @10 μM (10 µM): 102%

SMILES: COc1ccc(Cn2c(NCCCCNC(=N)N)nc(=O)n(Cc3ccc(Cl)c(Cl)c3)c2=O)cc1 [Cpd 32]
- inhibition at 10 µM: 88%
- IC50: 601 nM and 781 nM
- Ca^2+ Mobilization % Inh @10 μM (10 µM): 86%

SMILES: COc1ccc(CCn2c(NCCNC(=N)N)nc(=O)n(Cc3ccc(F)cc3)c2=O)cc1 [Cpd 33]
- inhibition at 10 µM: 66%
- IC50: 2860 nM

SMILES: N=C(N)NCCNc1nc(=O)n(Cc2ccc(Cl)c(Cl)c2)c(=O)n1Cc1ccc(OC2CCCC2)cc1 [Cpd 36]
- inhibition at 10 µM: 77%
- IC50: 1320 nM

SMILES: CSc1ccc(Cn2c(NCCNC(=N)N)nc(=O)n(Cc3ccc(Cl)c(Cl)c3)c2=O)cc1 [Cpd 37]
- inhibition at 10 µM: 98%
- IC50: 38 nM and 201 nM and 326 nM
- Ca^2+ Mobilization % Inh @10 μM (10 µM): 100% and 98% and 99%

SMILES: CCc1ccc(Cn2c(NCCNC(=N)N)nc(=O)n(Cc3ccc(Cl)c(Cl)c3)c2=O)cc1 [Cpd 38]
- inhibition at 10 µM: 98%
- IC50: 55 nM and 178 nM and 194 nM
- Ca^2+ Mobilization % Inh @10 μM (10 µM): 94% and 98%

SMILES: COc1ccc(Cn2c(NCCNC(=N)N)nc(=O)n(Cc3cccc(Cl)c3)c2=O)cc1 [Cpd 39]
- inhibition at 10 µM: 81%
- IC50: 909 nM

SMILES: N=C(N)NCCNc1nc(=O)n(Cc2ccc(Cl)c(Cl)c2)c(=O)n1Cc1ccc(OC(F)(F)F)cc1 [Cpd 40]
- inhibition at 10 µM: 98%
- IC50: 248 nM

SMILES: N=C(N)NCCNc1nc(=O)n(Cc2ccc(Cl)c(Cl)c2)c(=O)n1Cc1ccc(OC(F)F)cc1 [Cpd 41]
- inhibition at 10 µM: 101%
- IC50: 27 nM and 47 nM and 64 nM
- Ca^2+ Mobilization % Inh @10 μM (10 µM): 100% and 99%

SMILES: COc1ccc(Cn2c(N[C@H]3CCCC[C@@H]3NC(=N)N)nc(=O)n(Cc3ccc(Cl)c(Cl)c3)c2=O)cc1 [Cpd 43]
- inhibition at 10 µM: 31%
- IC50: > 10000 nM

SMILES: COc1ccc(Cn2c(NCCNC(=N)N)nc(=O)n(Cc3ccc(SC)cc3)c2=O)cc1 [Cpd 45]
- inhibition at 10 µM: 103%
- IC50: 18 nM

SMILES: CCc1ccc(Cn2c(=O)nc(NCCNC(=N)N)n(Cc3ccc(OC)cc3)c2=O)cc1 [Cpd 46, N-{2-[5-(4-Ethyl-benzyl)-1-(4-methoxy-benzyl)-4,6-dioxo-1,4,5,6-tetrahydro-[1,3,5]triazin-2-ylamino]-ethyl}-guanidine]
- inhibition at 10 µM: 101%
- IC50: 58 nM

SMILES: COc1ccc(Cn2c(NCCNC3=NCC(=O)N3)nc(=O)n(Cc3ccc(Cl)c(Cl)c3)c2=O)cc1 [Cpd 48, 3-(3,4-Dichloro-benzyl)-1-(4-methoxy-benzyl)-6-[2-(5-oxo-4,5-dihydro-1H-imidazol-2-ylamino)-ethylamino]-1H-[1,3,5]triazine-2,4-dione]
- inhibition at 10 µM: 94%
- IC50: 798 nM

SMILES: COc1ccc(Cn2c(NCCNC3=NCCN3)nc(=O)n(Cc3ccc(Cl)c(Cl)c3)c2=O)cc1 [Cpd 49, 3-(3,4-Dichloro-benzyl)-6-[2-(4,5-dihydro-1H-imidazol-2-ylamino)-ethylamino]-1-(4-methoxy-benzyl)-1H-[1,3,5]triazine-2,4-dione]
- inhibition at 10 µM: 75%
- IC50: 2000 nM

SMILES: CC(=O)Nc1ccc(Cn2c(NCCNC(=N)N)nc(=O)n(Cc3ccc(Cl)c(Cl)c3)c2=O)cc1 [Cpd 50]
- inhibition at 10 µM: 96%
- IC50: 248 nM

SMILES: N=C(N)NCCNc1nc(=O)n(Cc2ccc(Cl)c(Cl)c2)c(=O)n1Cc1ccc(C(N)=O)cc1 [Cpd 51, 4-[3-(3,4-Dichlorobenzyl)-6-(2-guanidinoethylamino)-2,4-dioxo-3,4-dihydro-2H-[1,3,5]triazin-1-yl-methyl]-benzamide]
- inhibition at 10 µM: 100%
- IC50: 47 nM

SMILES: CCOc1cccc(Cn2c(NCCNC(=N)N)nc(=O)n(Cc3ccc(Cl)c(Cl)c3)c2=O)c1 [Cpd 52]
- inhibition at 10 µM: 58%
- IC50: 6520 nM

SMILES: CCCNC(=N)NCCNc1nc(=O)n(Cc2ccc(Cl)c(Cl)c2)c(=O)n1Cc1ccc(OC)cc1 [Cpd 54]
- inhibition at 10 µM: 98%
- IC50: 14 nM and 6 nM
- Ca^2+ Mobilization % Inh @10 μM (10 µM): 101%

SMILES: COc1ccc(Cn2c(N3CCC(NC(=N)N)C3)nc(=O)n(Cc3ccc(Cl)c(Cl)c3)c2=O)cc1 (stereo not drawn) [Cpd 55]
- inhibition at 10 µM: 58%
- IC50: 6730 nM
